Source: ChEMBL document CHEMBL1138876, “An introduction of a pyridine group into the structure of prolyl oligopeptidase inhibitors” (Bioorg Med Chem Lett, 2006)
≈ marks a conversion by molar mass, not a printed value.

How the values were obtained:
[1] = Partition co-efficient, log P by pH metric titration; assay type: physicochemical; conditions: octanol/water
[2] = Dissociation constant, pKa of the compound; assay type: physicochemical
[3] = Inhibition of POP in pig brain; parameters: species or system Sus scrofa
[4] = Solubility in phosphate buffer at pH 7.4; assay type: physicochemical
[5] = Partition co-efficient, log P by shake-flask method; assay type: physicochemical; conditions: octanol/water

Structure (SMILES)	logP [1]	pKa [2]	IC50 [3]	solubility [4]	logP [5]
O=C(NCCc1cccnc1)C1=CCCC1C(=O)N1CCCC1 (stereo not drawn)	0.6	4.4	2.2 nM	–	–
O=C(NCCc1ccncc1)C1=CCCC1C(=O)N1CCCC1 (stereo not drawn)	0.5	4.4	4.8 nM	–	–
O=C(NCc1cccnc1)C1=CCCC1C(=O)N1CCCC1 (stereo not drawn)	0.4	4.4	9.7 nM	> 6000 µg/mL	–
O=C(NCc1ccncc1)C1=CCCC1C(=O)N1CCCC1 (stereo not drawn)	0.4	4.4	19 nM	–	–
O=C([C@@H]1CCCN1C(=O)CCc1cccnc1)N1CCCC1	0.3	–	30 nM	–	–
O=C(NCCc1ccccn1)C1=CCCC1C(=O)N1CCCC1 (stereo not drawn)	0.6	4.4	5.2 nM	–	–
CC(C)(C)[C@H]1CC[C@@H](C(=O)N2CCCC2)N1C(=O)CCc1cccnc1	1.8	–	13 nM	–	–
O=C([C@@H]1CCCN1C(=O)c1cccnc1)N1CCCC1	-0.3	–	44 nM	–	–
O=C([C@@H]1CCCN1C(=O)CCCc1ccccc1)N1CCCC1	–	–	–	> 6000 µg/mL	–
O=C([C@@H]1CCCN1C(=O)Cc1cccnc1)N1CCCC1	-0.2	–	56 nM	–	–
O=C(NCc1ccccc1)C1=CCCC1C(=O)N1CCCC1 (stereo not drawn)	–	–	9 nM	3000 µg/mL (≈ 10.1 mM)	1.6
O=C(NCCc1ccccc1)C1=CCCC1C(=O)N1CCCC1 (stereo not drawn)	–	–	1.5 nM	–	1.9
CC(C)(C)[C@H]1CC[C@@H](C(=O)N2CCCC2)N1C(=O)CCCc1cccnc1	2	–	2.1 nM	> 6000 µg/mL	–
O=C(NCc1ccccn1)C1=CCCC1C(=O)N1CCCC1 (stereo not drawn)	0.3	4.4	24 nM	–	–
CC(C)(C)[C@H]1CC[C@@H](C(=O)N2CCCC2)N1C(=O)CCCc1ccccc1	–	–	–	900 µg/mL (≈ 2.43 mM)	3.3
